Data: ChEMBL document CHEMBL1128063, “Discovery of selective dopamine D3 ligands: I. Dimeric 2-[4-(3-aminopropoxy)phenyl]benzimidazole antagonists” (Bioorg Med Chem Lett, 1995)

Tests used:
[1] = biological target: D(3) dopamine receptor (Homo sapiens, UniProt P35462); assay: Binding affinity towards human cloned Dopamine D3 receptor in CHO cells by [3H]spiperone displacement.; format: cell-based
[2] = biological target: D(2) dopamine receptor (Homo sapiens, UniProt P14416); assay: Binding affinity towards human cloned Dopamine D2 receptor in CHO cells by [3H]spiperone displacement.; format: cell-based
[3] = test system: Mus musculus; assay: Compound was tested for the locomotory activity in mice after ip administration; format: functional
[4] = test system: Rattus norvegicus; assay: Compound was tested for the locomotory activity in rats after oral administration; no effect; format: functional

Sequence of D(2) dopamine receptor (P14416 whole entry): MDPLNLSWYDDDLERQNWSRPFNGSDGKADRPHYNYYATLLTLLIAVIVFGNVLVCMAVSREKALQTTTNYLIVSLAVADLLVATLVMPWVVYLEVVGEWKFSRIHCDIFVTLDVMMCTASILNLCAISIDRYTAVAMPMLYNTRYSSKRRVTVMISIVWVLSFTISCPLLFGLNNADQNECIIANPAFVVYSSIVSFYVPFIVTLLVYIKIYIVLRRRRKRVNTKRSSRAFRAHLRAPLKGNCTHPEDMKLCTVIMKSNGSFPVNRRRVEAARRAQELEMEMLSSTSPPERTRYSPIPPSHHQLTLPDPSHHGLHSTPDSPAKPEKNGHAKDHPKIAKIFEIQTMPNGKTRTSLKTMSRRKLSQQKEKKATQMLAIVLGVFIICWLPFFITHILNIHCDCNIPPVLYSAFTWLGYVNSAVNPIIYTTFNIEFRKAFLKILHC
Sequence of D(3) dopamine receptor (P35462 whole entry): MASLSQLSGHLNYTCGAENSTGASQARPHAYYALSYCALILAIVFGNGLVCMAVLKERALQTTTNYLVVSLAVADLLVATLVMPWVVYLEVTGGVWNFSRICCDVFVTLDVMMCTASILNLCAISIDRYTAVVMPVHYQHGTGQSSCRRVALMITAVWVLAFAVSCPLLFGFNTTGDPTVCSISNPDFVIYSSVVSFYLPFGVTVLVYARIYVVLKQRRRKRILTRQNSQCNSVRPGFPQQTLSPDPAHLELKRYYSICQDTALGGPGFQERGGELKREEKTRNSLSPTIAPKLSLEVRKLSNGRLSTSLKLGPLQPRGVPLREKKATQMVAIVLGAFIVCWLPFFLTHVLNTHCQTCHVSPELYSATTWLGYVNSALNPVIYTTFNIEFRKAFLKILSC

| Compound | Ki [1] | Ki [2] | ED50 [3] | ED50 [4] |
| --- | --- | --- | --- | --- |
| CN(C)CCCOc1ccc(-c2nc3ccccc3n2C/C=C/Cn2c(-c3ccc(OCCCN(C)C)cc3)nc3ccccc32)cc1 | 144 nM | 4990 nM |  |  |
| CCCCN(CCCC)CCCOc1ccc(-c2nc3ccccc3n2C/C=C/Cn2c(-c3ccc(OCCCN(CCCC)CCCC)cc3)nc3ccccc32)cc1 |  | 472 nM |  |  |
| CCN(CC)CCCOc1ccc(-c2nc3ccccc3n2C/C=C/Cn2c(-c3ccc(OC)cc3)nc3ccccc32)cc1 |  | 1410 nM |  |  |
| C(=C\Cn1c(-c2ccc(OCCCN3CCOCC3)cc2)nc2ccccc21)/Cn1c(-c2ccc(OCCCN3CCOCC3)cc2)nc2ccccc21 | > 2040 nM | > 3330 nM |  |  |
| CCN(CC)CCCOc1ccc(-c2nc3ccccc3n2C/C=C/Cn2c(C)nc3ccccc32)cc1 | 1200 nM | > 3330 nM |  |  |
| CCN(CC)CCCOc1ccc(-c2nc3ccccc3n2C/C=C/Cn2c(-c3ccc(OCCCN(CC)CC)cc3)nc3ccccc32)cc1 | 35 nM | 2350 nM |  |  |
| CCCN(CCC)CCCOc1ccc(-c2nc3ccccc3n2C/C=C/Cn2c(-c3ccc(OCCCN(CCC)CCC)cc3)nc3ccccc32)cc1 | 5 nM | 343 nM |  |  |
| CCN(CC)CCCOc1ccc(-c2nc3ccccc3n2C/C=C/Cn2c(-c3ccc(OCCCN4CCN(c5ccccc5)CC4)cc3)nc3ccccc32)cc1 | 19 nM | 803 nM |  |  |
| CCN(CC)CCCOc1ccc(-c2nc3ccccc3n2C/C=C/Cn2c(-c3ccc(OCCCC4CCCCC4)cc3)nc3ccccc32)cc1 | 39 nM | 1030 nM |  |  |
| C(=C\Cn1c(-c2ccc(OCCCN3CCN(c4ccccc4)CC3)cc2)nc2ccccc21)/Cn1c(-c2ccc(OCCCN3CCN(c4ccccc4)CC3)cc2)nc2ccccc21 | 275 nM | 3940 nM |  |  |
| CCN(CC)CCCOc1ccc(-c2nc3ccccc3n2CCCCCCn2c(-c3ccc(OCCCN(CC)CC)cc3)nc3ccccc32)cc1 | 131 nM | 1750 nM |  |  |
| CCN(CC)CCCOc1ccc(-c2nc3ccccc3n2CCCCn2c(-c3ccc(OCCCN(CC)CC)cc3)nc3ccccc32)cc1 | 28 nM | 1490 nM |  |  |
| CCN(CC)CCCOc1ccc(-c2nc3ccccc3n2Cc2ccc(Cn3c(-c4ccc(OCCCN(CC)CC)cc4)nc4ccccc43)cc2)cc1 | 184 nM | 3440 nM |  |  |
| C(=C\Cn1c(-c2ccc(OCCCN3CCCCC3)cc2)nc2ccccc21)/Cn1c(-c2ccc(OCCCN3CCCCC3)cc2)nc2ccccc21 | 10 nM | 517 nM | 7.1 mg/kg | > 30 mg/kg |
| CCN(CC)CCCOc1ccc(-c2nc3ccccc3n2CC=CCn2c(-c3ccc(OCCCN(CC)CC)cc3)nc3ccccc32)cc1 | 87 nM | 1520 nM |  |  |
| C(=C\Cn1c(-c2ccc(OCCCN3CCCC3)cc2)nc2ccccc21)/Cn1c(-c2ccc(OCCCN3CCCC3)cc2)nc2ccccc21 | 9 nM | 56 nM |  |  |
| CCN(CC)CCCOc1ccc(-c2nc3ccccc3n2C/C=C/Cn2c(-c3ccccc3)nc3ccccc32)cc1 | 133 nM | 6530 nM |  |  |
